These results are taken from patent US7498358B2, “Human ADAM-10 inhibitors” (Exelixis, Inc., priority 2001, dated 2009).

Where two headings read alike, the source gives them in different places.

Experiment [1] addresses T1, hADAM-10 (UniProt O14672).
T1 sequence (O14672 1-748): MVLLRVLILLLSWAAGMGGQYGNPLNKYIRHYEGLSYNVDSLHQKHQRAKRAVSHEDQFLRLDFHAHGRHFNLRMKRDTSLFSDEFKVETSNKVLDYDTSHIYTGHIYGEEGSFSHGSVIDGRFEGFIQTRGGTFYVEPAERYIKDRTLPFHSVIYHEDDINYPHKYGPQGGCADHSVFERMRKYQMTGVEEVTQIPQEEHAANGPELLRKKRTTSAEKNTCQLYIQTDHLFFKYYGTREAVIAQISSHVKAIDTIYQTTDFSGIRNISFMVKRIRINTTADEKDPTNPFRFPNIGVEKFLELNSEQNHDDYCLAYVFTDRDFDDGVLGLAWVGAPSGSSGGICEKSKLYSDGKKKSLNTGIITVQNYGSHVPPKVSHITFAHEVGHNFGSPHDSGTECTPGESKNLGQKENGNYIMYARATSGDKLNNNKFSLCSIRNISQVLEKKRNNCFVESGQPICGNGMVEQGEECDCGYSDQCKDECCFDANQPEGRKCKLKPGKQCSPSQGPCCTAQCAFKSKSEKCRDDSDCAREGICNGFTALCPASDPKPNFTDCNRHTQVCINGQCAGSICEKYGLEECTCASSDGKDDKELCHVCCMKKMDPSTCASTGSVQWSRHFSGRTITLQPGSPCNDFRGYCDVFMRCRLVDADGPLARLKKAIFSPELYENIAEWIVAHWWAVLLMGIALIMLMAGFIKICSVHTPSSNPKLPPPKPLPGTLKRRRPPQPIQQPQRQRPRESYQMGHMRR
Description: ADAM-10 enzyme assay: cleavage of fluorogenic 10-residue peptide (DABCYL/EDANS). The experiment is classed as biochemical, human. The note with it: Table 4, in vitro. The procedure:
mADAM-10 or hADAM-10 activity was measured as the ability to cleave a 10-residue peptide (DABCYL-Leu-Leu-Ala-Gln-Lys-*-Leu-Arg-Ser-Ser-Arg-EDANS). […] Enzyme was diluted to a final active concentration of 5 nM in Buffer A (50 mM HEPES 8.0, 100 mM NaCl, 1 mM CaCl2 and 0.01% NP-40). Serial dilutions for compounds were performed ranging from 100 uM to 0.5 nM using a Beckman Biomek 2000 in polypropylene plates (Greiner). 20 μl of enzyme solution was added to 10 μl of compound in buffer A, and allowed to incubate for 15 min in 384 well black, Greiner, microtiter plates (#781076). 20 μl of substrate (12.5 uM in Buffer A) was then added, resulting in final reaction conditions of 2 nM ADAM-10, 5 μM substrate, and compound concentrations ranging from 20 uM to 0.1 nM. The reaction was incubated for 2 hr at RT, and fluorescence was measured at Ex355, Em460 on a Wallac Victor 2 fluorescence reader. For final analysis of potent inhibitors, a similar reaction was set up with a final active ADAM-10 concentration of 0.1 nM. This reaction was incubated for 16 hr at RT and fluorescence was read using identical conditions.
(§1) Inhibition is indicated as IC50 with the following key: A=IC50 less than 50 nM, B=IC50 greater than 50 nM, but less than 1000 nM, C=IC50 greater than […], but less than 20,000 nM, and D=IC50 greater than 20,000 nM.

For experiment [2], the system named is various metalloproteases. Description: in vitro inhibition of various metalloproteases (Table 4). To be noted: Table 4, in vitro. It is filed as biochemical. Here is the method:
as §1

Experiment [3] deals with various metalloproteases (Homo sapiens, UniProt P08254). The description is as above. It is filed as biochemical. To be noted: MMP3; Table 4, in vitro. Here is the method:
as §1

Experiment [4] concerns the target various metalloproteases (Homo sapiens, UniProt P45452). Described as above. It is filed as biochemical. To be noted: MMP13; Table 4, in vitro. Here is the method: as §1
Experiment [5] deals with T2, various metalloproteases (Homo sapiens, UniProt P08253).
T2 sequence (P08253 110-660): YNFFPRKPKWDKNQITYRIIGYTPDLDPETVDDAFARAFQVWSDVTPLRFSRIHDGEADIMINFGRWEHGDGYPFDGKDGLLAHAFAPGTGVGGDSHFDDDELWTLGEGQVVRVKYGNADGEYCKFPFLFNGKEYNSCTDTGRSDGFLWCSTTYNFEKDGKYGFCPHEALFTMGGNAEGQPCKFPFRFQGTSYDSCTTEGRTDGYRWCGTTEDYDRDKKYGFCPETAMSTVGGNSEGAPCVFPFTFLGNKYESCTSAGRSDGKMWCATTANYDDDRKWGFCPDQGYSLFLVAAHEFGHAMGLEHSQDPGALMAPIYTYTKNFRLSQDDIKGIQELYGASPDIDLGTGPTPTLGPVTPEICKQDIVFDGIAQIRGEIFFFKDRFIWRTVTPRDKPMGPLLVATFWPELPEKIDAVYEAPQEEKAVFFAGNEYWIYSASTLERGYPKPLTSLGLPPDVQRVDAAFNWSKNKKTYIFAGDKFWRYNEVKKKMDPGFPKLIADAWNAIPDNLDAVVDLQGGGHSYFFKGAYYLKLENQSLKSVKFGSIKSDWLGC
Described as above. To be noted: MMP2; Table 4, in vitro. The experiment is classed as biochemical. Here is the method:
as §1

various metalloproteases (Homo sapiens, UniProt P08254), sequence (P08254 100-477): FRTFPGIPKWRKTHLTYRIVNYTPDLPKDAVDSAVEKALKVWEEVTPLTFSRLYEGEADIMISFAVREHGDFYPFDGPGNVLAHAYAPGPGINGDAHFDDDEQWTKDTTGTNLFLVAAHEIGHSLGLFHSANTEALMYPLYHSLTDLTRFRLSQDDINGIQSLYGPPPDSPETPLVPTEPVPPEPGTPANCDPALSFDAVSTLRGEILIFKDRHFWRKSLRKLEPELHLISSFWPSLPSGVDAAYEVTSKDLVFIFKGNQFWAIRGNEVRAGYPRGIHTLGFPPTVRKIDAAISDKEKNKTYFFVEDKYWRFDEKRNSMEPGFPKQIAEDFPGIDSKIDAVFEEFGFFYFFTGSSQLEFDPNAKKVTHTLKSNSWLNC

Regarding `CN(C)CC[C@@H](NS(=O)(=O)c1cc(F)c(Oc2ccc(Cl)cc2)c(F)c1)C(=O)NO` [Compound 89, (2R)-N^2-[({4-[(4-chlorophenyl)oxy]-3,5-difluorophenyl}sulfonyl)amino]-4-(dimethylamino)-N^1-hydroxybutanamide], the IC50 (in general, the concentration that inhibits the measured activity by half) in experiment [1] was under 0.05 µM; in experiment [2] (MMP2, read-out: MMP2 IC50) it was under 0.05 µM; in experiment [2] (MMP3, read-out: MMP3 IC50), 0.05 to 20 µM; in experiment [2] (MMP13, read-out: MMP13 IC50) it was 0.05 to 1 µM.
Turning to `N=C(N)NCCC[C@@H](NS(=O)(=O)c1ccc(Oc2ccccc2)cc1)C(=O)NO` [Compound 2, N^1-hydroxy-N^2-[(4-phenoxyphenyl)sulfonyl]-D-argininamide], the concentration for half-maximal inhibition (IC50) is under 0.05 µM in experiment [1]; 0.05 to 20 µM in experiment [2] (MMP1, read-out: MMP1 IC50); under 0.05 µM in experiment [2] (MMP2, read-out: MMP2 IC50); 0.05 to 1 µM in experiment [2] (MMP3, read-out: MMP3 IC50); under 0.05 µM in experiment [2] (MMP8, read-out: MMP8 IC50); under 0.05 µM in experiment [2] (MMP9, read-out: MMP9 IC50). Besides, the IC50 in experiment [2] (MMP13, read-out: MMP13 IC50) is under 0.05 µM; in experiment [2] (TACE, read-out: TACE IC50), 0.05 to 1 µM.
In experiment [1], `Cc1cc(C)cc(Oc2c(F)cc(S(=O)(=O)N[C@@H](CC3CCC(CN)CC3)C(=O)NO)cc2F)c1` (some centres unmarked) [Compound 106, 3-[4-(aminomethyl)cyclohexyl]-N^2-({4-[(3,5-dimethylphenyl)oxy]-3,5-difluorophenyl}sulfonyl)-N^1-hydroxyalaninamide] registered an IC50 of 0.05 to 20 µM.
On to `NCCCC[C@@H](NS(=O)(=O)c1ccc(Oc2ccccc2)cc1)C(=O)NO` [Compound 13, N^1-hydroxy-N^2-{[4-(phenyloxy)phenyl]sulfonyl}-D-lysinamide], for which the IC50 in experiment [1] was under 0.05 µM; in experiment [2] (MMP1, read-out: MMP1 IC50), under 0.05 µM; in experiment [2] (MMP2, read-out: MMP2 IC50) it was under 0.05 µM; in experiment [2] (TACE, read-out: TACE IC50), 0.05 to 1 µM.
For `N=C(N)NCCC[C@@H](NS(=O)(=O)c1ccc(Oc2ccc(F)cc2)nc1)C(=O)NO` [Compound 68, N^2-({6-[(4-fluorophenyl)oxy]pyridin-3-yl}sulfonyl)-N^1-hydxoxy-D-argininamide], the IC50 was under 0.05 µM in experiment [1]; 0.05 to 20 µM in experiment [2] (MMP1, read-out: MMP1 IC50); 0.05 to 1 µM in experiment [2] (MMP3, read-out: MMP3 IC50); under 0.05 µM in experiment [2] (MMP13, read-out: MMP13 IC50).
Turning to `CC(C)(SCC(=O)N1CCOCC1)[C@@H](NS(=O)(=O)c1cc(F)c(Oc2ccc(Cl)cc2)c(F)c1)C(=O)NO` [Compound 91, N^2-({4-[(4-chlorophenyl)oxy]-3,5-difluorophenyl}sulfonyl)-N^1-hydroxy-3-[(2-morpholin-4-yl-2-oxoethyl)thio]-D-valinamide], the IC50 in experiment [2] (MMP2, read-out: MMP2 IC50) was under 0.05 µM.
With `N#Cc1ccc(C[C@@H](NS(=O)(=O)c2cc(F)c(Oc3ccc(F)cc3)c(F)c2)C(=O)NO)cc1` [Compound 72, 4-cyano-N^2-({3,5-difluoro-4-[(4-fluorophenyl)oxy]phenyl}sulfonyl)-N^1-hydroxy-D-phenylalaninamide], the IC50 in experiment [1] was 0.05 to 1 µM; in experiment [2] (MMP1, read-out: MMP1 IC50) it was 0.05 to 20 µM; in experiment [2] (MMP2, read-out: MMP2 IC50), under 0.05 µM; in experiment [2] (MMP3, read-out: MMP3 IC50), 0.05 to 1 µM; in experiment [2] (MMP13, read-out: MMP13 IC50), under 0.05 µM.
For the compound `O=C(NO)C(NS(=O)(=O)c1ccc(Oc2ccc(F)cc2)cc1)C1CCNCC1` (centres unmarked) [Compound 97, N^2-[({4-[(4-fluorophenyl)oxy]phenyl}sulfonyl)amino]-N^1-hydroxy-2-piperidin-4-ylacetamide], the IC50 in experiment [1] was under 0.05 µM; in experiment [2] (MMP3, read-out: MMP3 IC50) it was under 0.05 µM; in experiment [2] (MMP13, read-out: MMP13 IC50) it was under 0.05 µM.
As for “3-{1-[(Z)-(cyanoimino)(propylamino)methyl]piperidin-4-yl}-N^1-hydroxy-N^2-[(4-phenoxyphenyl)sulfonyl]alaninamide [Compound 41]”, the IC50 is under 0.05 µM in experiment [1]; 0.05 to 20 µM in experiment [2] (MMP1, read-out: MMP1 IC50); under 0.05 µM in experiment [2] (MMP3, read-out: MMP3 IC50); under 0.05 µM in experiment [2] (MMP13, read-out: MMP13 IC50); under 0.05 µM in experiment [2] (TACE, read-out: TACE IC50).
Take `Cc1cc(C)cc(Oc2c(F)cc(S(=O)(=O)NC(C(=O)NO)C3CCNCC3)cc2F)c1` (centres unmarked) [Compound 99, N^2-[({4-[(3,5-dimethylphenyl)oxy]-3,5-difluorophenyl}sulfonyl)amino]-N^1-hydroxy-2-piperidin-4-ylacetamide]: the IC50 in experiment [1] is under 0.05 µM; in experiment [2] (MMP2, read-out: MMP2 IC50) it was under 0.05 µM; in experiment [2] (MMP3, read-out: MMP3 IC50), under 0.05 µM; in experiment [2] (MMP13, read-out: MMP13 IC50), under 0.05 µM.
As to “3-(1-{(Z)-[(aminocarbonyl)imino][(2-methoxyethyl)amino]methyl}piperidin-4-yl)-N^1-hydroxy-N^2-[(4-phenoxyphenyl)sulfonyl]alaninamide [Compound 44]”, the IC50 in experiment [2] (MMP1, read-out: MMP1 IC50) is under 0.05 µM; in experiment [2] (MMP2, read-out: MMP2 IC50), under 0.05 µM; in experiment [2] (MMP3, read-out: MMP3 IC50), under 0.05 µM; in experiment [2] (MMP13, read-out: MMP13 IC50), under 0.05 µM.
Regarding `NCC1CCC(C[C@H](NS(=O)(=O)c2ccc(-c3cccc(F)c3)nc2)C(=O)NO)CC1` (some centres unmarked) [Compound 105, 3-[4-(aminomethyl)cyclohexyl]-N^2-{[6-(3-fluorophenyl)pyridin-3-yl]sulfonyl}-N^1-hydroxyalaninamide], the IC50 is under 0.05 µM in experiment [1], 0.05 to 1 µM in experiment [3], under 0.05 µM in experiment [4] and under 0.05 µM in experiment [5].
Consider “N^6-[(E)-(cyanoimino)(propylamino)methyl]-N^1-hydroxy-N^2-[(4-phenoxyphenyl)sulfonyl]-D-lysinamide [Compound 23]”, for which the IC50 in experiment [1] is under 0.05 µM; in experiment [2] (MMP1, read-out: MMP1 IC50), 0.05 to 1 µM; in experiment [2] (MMP2, read-out: MMP2 IC50), under 0.05 µM; in experiment [2] (MMP3, read-out: MMP3 IC50), under 0.05 µM; in experiment [2] (MMP13, read-out: MMP13 IC50), under 0.05 µM; in experiment [2] (TACE, read-out: TACE IC50), under 0.05 µM.
